From patent publication US6303596A, “Use of taurolidine for treatment of leukemias” (priority 2000, dated 2001)

Experiments:
Assay type in all cases: cell-based, human
[1] = test system: MM6 cells; experiment: DNA fragmentation, agarose gel electrophoresis, MM6
Experimental: FIG. 13 is an agarose gel depicting DNA fragmentation in response to taurolidine treatment as determined by assay procedures. MM6 cells were incubated with taurolidine or vehicle in RPMI+10% BCS for four hours. Cells were harvested and low molecular weight DNA extracted as described below. C=control cells without taurolidine or vehicle treatment; T=treated with 50 μg/ml taurolidine; V=treated with vehicle alone; and MW=molecular weight markers.
Following treatment with either taurolidine or the vehicle solution, cell death was assessed in one of two ways. In the first method, the DNA fragmentation pattern characteristic of apoptosis was detected by extracting low molecular weight DNA from cells using a phosphate-citrate buffer (Darzynkiewicz, et al., "Assays of cell viability: discrimination of cells dying by apoptosis," Methods Cell Biol 41:15 (1994)) and subjecting the extracted DNA to agarose gel electrophoresis.
Apoptosis is associated with fragmentation of genomic DNA in the internucleosomal linker regions, which can be visualized as a characteristic ladder of DNA fragments upon gel electrophoresis. Arends, M. J. and Wyllie, A. H., "Apoptosis: mechanisms and roles in pathology," Int Rev Exp Path 32:223 (1991). Accordingly, low molecular weight DNA was extracted from taurolidine-treated MM6 cells and subjected to electrophoresis in agarose gels.

[2] = test system: GM5387; experiment: subcellular-sized events by flow cytometry, GM5387; settings: GM5387, after taurolidine treatment
Experimental: Less than 0.1% of ECV304 or GM5387 cells were TUNEL-positive 6 hours after treatment with taurolidine or anisomycin (Table VIII). Therefore, neither of these agents induce rapid DNA fragmentation in these cell types. However, there was approximately a 70% increase in the number of subcellular-sized events recorded by flow cytometry after taurolidine treatment of these cells, indicating some effect of taurolidine on cell integrity. These cell fragments were not stained by propidium iodide, consistent with them being apoptotic bodies.

[3] = test system: HL-60; experiment: TUNEL / propidium iodide flow cytometry, HL-60; settings: for % TUNEL-positive: HL-60, taurolidine 100 μg/ml or anisomycin 1 μg/ml for 4 h, assayed at 6 hours, mean ± SD
Experimental: In the second method, DNA fragmentation was detected via TUNEL assay according to the manufacturer's instructions. With this methodology, 2×10^6 cells were fixed with 2% paraformaldehyde, permeabilized with 0.1% Triton X-100/0.1% citrate, incubated at 37° C. with terminal deoxynucleotidyl transferase and FITC-dUTP, rinsed and analyzed by flow cytometry. Enhanced FITC signal indicates apoptosis-specific DNA fragmentation. Gavriali, et al, "Identification of programmed cell death in situ via specific labeling of nuclear DNA fragmentation," J Cell Biol 119:493 (1992). Parallel aliquots of unfixed cells were treated with PI and FITC-conjugated anti-CD14 and analyzed by flow cytometry, in order to identify cells with permeable cell membranes (since PI binds to DNA but is excluded from cells with intact plasma membranes) and also to determine the cell-specificity of the apoptotic signal.
Consequently, TUNEL analysis was performed on PBMC at 3, 6, or 24 hours after treatment with 25 to 100 μg/ml taurolidine. Aliquots of harvested cells were also labeled with FITC-conjugated anti-CD14 antibodies and PI, which allowed identification of monocytes (CD14-positive cells) and cells with damaged cell membranes (PI-positive cells). […] Thus, nearly 75% of the monocytes were TUNEL-positive following treatment with 100 μg/ml taurolidine for six hours. Confirmation that the TUNEL-positive cells were monocytes was obtained by staining with FITC-conjugated anti-CD14.
In another study, TUNEL assays were performed on all cell lines 6 hours after cells were initially exposed to taurolidine (cells were treated for 4 hours, rinsed, and then incubated for 2 more hours before TUNEL assay was performed).
. Taurolidine and anisomycin induced apoptosis in MM6, HL-60, and Jurkat cells (Table VIII). MM6 and HL-60 cells were similarly effected, with >80% TUNEL-positive cells after 6 hours. Jurkat cells were less sensitive, with approximately 50% of cells induced to undergo apoptosis after taurolidine treatment. After 6 hours, 73% of anisomycin-treated REH cells were apoptotic, with less than 20% of taurolidine-treated REH cells being TUNEL-positive. However, assay of cells 24 hours after
^a Analysis by flow cytometry after staining cells with propidium
iodide and processing for TUNEL.
Data are percent of total cell-size events, and are expressed as mean ±
Cells were treated for 4 hours with taurolidine (100 μg/ml) or
anisomycin (1 μg/ml), and then assayed at 6 hours.

O=S1(=O)CCN(CN2CCS(=O)(=O)NC2)CN1 [taurolidine, 4,4'-methylenebis(perhydro-1,2,4-thiadiazin 1,1-dioxide)]
DNA fragmentation ladder ([1]; MM6, 50 μg/ml taurolidine, 4 h, no LPS): prominent ladder pattern of DNA fragments
DNA fragmentation ladder ([1]; MM6, LPS present during taurolidine treatment): identical results
increase in the number of subcellular-sized events [2]: ~70%
% TUNEL-Negative Cells ([3]; HL-60, 50 μg/ml, 3 hours): 35%
% TUNEL-positive [3]: 91.9 ± 10.9%
% TUNEL-positive ([3]; listed as Taurolidine): > 80%
cytotoxicity at 50 µg/mL ([3]; Homo sapiens, HL-60, 3 h, read-out: % Propidium Iodide Positive Cells): 5%
